Assay results reported in patent US20250177566A1, “USE OF CHEMICAL EPIGENETIC MODIFIERS TO MODULATE GENE EXPRESSION” (The University of North Carolina at Chapel Hill, priority 2022, published 2025).

Tests used:
[1] = system: AAV transgene expression (firefly luciferase); experiment: AAV regulation with first generation CEM, dual luciferase assay, HCT116 Renilla; type: cell-based, human; conditions: FIG. 12, 50, 200, 500, 1000 nM
Source text: (§1) It was investigated whether rAAV transgene expression can be epigenetically controlled. Rapid screening of CEM technology can be performed with dual liucierase assays. (FIG. 10). Briefly, a cell line can be stably transduced with Ef1a-Renilla, enabling normalization to cell number. The cells are then either infected with AAV or tranfected with plasmid and dosed with a chemical epigenetic modifier. Luminescence can then be measured with the Dual Lucieferase Reporter, commercially available from Promega. This approach is described in more detail in the methods section of the example. Gene activation can be described as normalized luciferase or fold change. A measure of total gene expression can be calculated by
Preliminary regulation of AAV with first generation CEMs is depicted in FIG. 11A. The prototype system is autogenous, saving casssette space. (FIG. 11B). […] Preliminary regulation of AAV with first generation CEMs in HEK293T Renilla cells using the cassette in FIG. 11B results are shown in FIG. 13, with multiplicity of infection (MOI)=number of viral genomes/cell.

[2] = system: HEK293T cells; experiment: alamarBlue cell viability assay, HEK293T; type: cell-based, human
Method: (§2) FIGS. 8A-8B show alamarBlue cell viability assays. HEK293T or HCT116 cells were plated in 96-well plates 24 hrs before chemical treatment of 0.001, 0.01, 0.1, 1, 10, 50, and 100 μM CEM207 was added. Another group of cells were treated with all concentrations of CEM207 mentioned above along with 200 nM CEM87 in all samples. After 4 days of chemical exposure, cell growth was measured by fluorescence. […] HCT116 cells were stably infected with dCas9 and MS2-FKBP*x2 constructs and transfected with CXCR4 gRNA. After 24 hrs of 25 nM CEM207 treatment, ChIP-qPCR was performed at different base pair distances from the transcription start site of CXCR4 gene. […] Error bars represent the standard deviation.
AlamarBlue cell viability assay. HEK293T or HCT116 cells were placed in black 96-well plates with clear bottom. 24 hrs later, media was exchanged to include 0.001, 0.01, 0.1, 1, 10, 50, 100 μM concentrations of CEM207, or all CEM207 concentrations above along with 200 nM CEM87. After 4 days of chemical exposure, alamarBlue Cell Viability Reagent (Invitrogen, DAL1025) was added to each well. Cells were incubated at 37° C. for 4 hrs and fluorescence was read using the TECAN Infinite F200 Fluorescence Microplate Reader. IC50 values were calculated using GraphPad Prism 9.

[3] = system: rAAV2 transgene expression (firefly luciferase); experiment: rAAV2 SLF* CEM system dual luciferase assay, HEK293T Renilla, multiplicity of infection; type: cell-based, human; conditions: FIGS. 14B and 14C; 0, 10 or 100 nM CEM207; increasing vg/cell
Source text: as §1
Next, it was determined whether SLF*CEMs can regulate AAV. The cassette shown in FIG. 14A was inserted into rAAV2 and infected into HEK293T Renilla. […] Next, it was explored whether the cassette was truly modular by varying the promoter while retaining SLF* CEM successful activation of rAAV2. […]
Day 4 (72 h): Data was obtained using the Promega Dula Luciferase Reporter (DLR) assay: first, the cells were washed with 100 μL of PBS/well dropwise followed by 20 μL of 1× passive lysis buffer (PLB) added to each well. The cells were incubated for 15 minutes in PLB and the assay ran on pheraSTAR microplate reader with 100 μL of each DLR reagent, gain=3600.

[4] = target: T1, BRD4 (Homo sapiens, UniProt O60885+P62942); experiment: BRD4 ChIP-qPCR near the CXCR4 transcription start site, HCT116; type: cell-based; conditions: FIG. 8, 25 nM, 24 hrs
T1 construct: achieved via the accumulation of endogenous epigenetic machinery at the designed gRNA targeted gene locus; endogenous in cells; host or cells: HCT116 cells stably expressing dCas9 and MS2-FKBP*x2, transfected with CXCR4 or NT gRNA
T1 sequence (P62942 2-108 limits assumed, other chains not shown): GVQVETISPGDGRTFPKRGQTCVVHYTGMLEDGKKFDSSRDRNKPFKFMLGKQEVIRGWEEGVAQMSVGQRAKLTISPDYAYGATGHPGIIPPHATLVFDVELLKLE
Method: as §2
Given that SLF*-CEMa facilitates gene activation via recruitment of BET proteins including BRD4, BRD4 enrichment at a specific targeted gene locus was investigated to further validate the mechanism of CEM207. Based on the alamarBlue cell viability assay performed with HEK293T and HCT116 cells, CEM207 can have different toxicity effects on different cell lines after 4 days of exposure. […] The signal change was measured between samples when only CEM207 or gRNA are present and those where both are present. […] To determine outlier significance, a “z-score” distribution was calculated by taking the scaled means of the x- and y-axis values and calculated P values for each point within this distribution. […]

Row | Compound | luminescence, fold change compared to no treatment [1] | IC50 ([2]; CEM207 treatment alone, 4 days of exposure) [nM] | IC50 ([2]; treated simultaneously with 200 nM CEM87, 4 days of exposure) [nM] | activation of rAAV2 luciferase expression with viral titer escalation [3] | fold change, BRD4 ChIP-qPCR (CXCR4 gRNA vs NT gRNA) ([4]; +40 bp from CXCR4 TSS) [fold] | fold change, BRD4 ChIP-qPCR (CXCR4 gRNA vs NT gRNA) ([4]; +300 bp from CXCR4 TSS) [fold]
1 | COc1ccc2c(c1)C(c1ccc(Cl)cc1)=N[C@@H](CC(=O)NCc1cn(CCOCCOCCOCCNC(=O)CCSCCC[C@@H]3/C=C(\C)C[C@H](C)C[C@H](OC)[C@H]4O[C@@](O)(C(=O)C(=O)N5CCCC[C@H]5C(=O)O[C@H](/C(C)=C/[C@@H]5CC[C@@H](O)[C@H](OC)C5)[C@H](C)[C@@H](O)CC3=O)[C@H](C)C[C@@H]4OC)nn1)c1nnc(C)n1-2 [CEM87, reference compound] | dose dependent increase in luminscence | – | – | – | – | –
2 | CC[C@H](C(=O)N1CCCC[C@H]1C(=O)O[C@H](CCc1ccc(OC)c(OC)c1)c1cccc(OCC(=O)NCCOCCOCCNC(=O)C[C@@H]2N=C(c3ccc(Cl)cc3)c3c(sc(C)c3C)-n3c(C)nnc32)c1)c1cc(OC)c(OC)c(OC)c1 [CEM207, (R)-1-(3-((14-((S)-4-(4-Chlorophenyl)-2,3,9-trimethyl-6H-thieno[3,2-f][1,2,4]triazolo[4,3-a][1,4]diazepin-6-yl)-2,13-dioxo-6,9-dioxa-3,12-diazatetradecyl)oxy)phenyl)-3-(3,4-dimethoxyphenyl) propyl(S)-1-((S)-2-(3,4,5-trimethoxyphenyl)butanoyl) piperidine-2-carboxylate] | – | 106 | 78.6 | compatible with viral titer escalation | 2.7 | 1.2
